Tests used:
human orexin-1 receptor = molecular target: T1, human orexin-1 receptor (Homo sapiens, UniProt O43613); experiment: Intracellular calcium measurement (FLIPR Tetra), orexin receptor antagonistic activity, OX1; format: cell-based; details: CHO cells expressing human orexin-1 receptor, 3 nM orexin-A, conditions B, normalized (*) using IC50 of on-plate reference compound
T1 construct: expressed in transfected cells; host or cells: CHO (Chinese hamster ovary) cells, kept under G418 selection
T1 sequence (O43613 1-425): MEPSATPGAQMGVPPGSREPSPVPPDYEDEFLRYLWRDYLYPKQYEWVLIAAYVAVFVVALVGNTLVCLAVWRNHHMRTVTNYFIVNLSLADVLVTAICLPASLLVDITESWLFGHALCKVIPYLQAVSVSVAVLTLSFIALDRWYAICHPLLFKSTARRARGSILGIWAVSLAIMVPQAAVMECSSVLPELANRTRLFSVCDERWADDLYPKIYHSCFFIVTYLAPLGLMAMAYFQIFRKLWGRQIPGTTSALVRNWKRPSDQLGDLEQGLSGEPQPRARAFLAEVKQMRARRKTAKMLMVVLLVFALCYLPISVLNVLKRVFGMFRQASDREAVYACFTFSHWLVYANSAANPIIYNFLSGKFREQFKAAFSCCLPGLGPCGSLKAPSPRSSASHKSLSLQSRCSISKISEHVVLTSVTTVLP
In short: (§1)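 Recombinant CHO cells expressing human OX1 or OX2, loaded with fluo-4 AM plus probenecid, were preincubated with antagonist 10 min, then stimulated with 3 nM human orexin-A. Peak fluorescence was compared with vehicle; IC50 derived, sometimes normalized to an on-plate reference compound; two pipetting/cell-splitting conditions were used.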

human orexin-2 receptor = molecular target: T2, human orexin-2 receptor (Homo sapiens, UniProt O43614); experiment: Intracellular calcium measurement (FLIPR Tetra), orexin receptor antagonistic activity, OX2; format: cell-based; details: CHO cells expressing human orexin-2 receptor, 3 nM orexin-A, conditions B, normalized (*) using IC50 of on-plate reference compound
T2 construct: expressed in transfected cells; host or cells: CHO (Chinese hamster ovary) cells, kept under G418 selection
T2 sequence (O43614 1-444): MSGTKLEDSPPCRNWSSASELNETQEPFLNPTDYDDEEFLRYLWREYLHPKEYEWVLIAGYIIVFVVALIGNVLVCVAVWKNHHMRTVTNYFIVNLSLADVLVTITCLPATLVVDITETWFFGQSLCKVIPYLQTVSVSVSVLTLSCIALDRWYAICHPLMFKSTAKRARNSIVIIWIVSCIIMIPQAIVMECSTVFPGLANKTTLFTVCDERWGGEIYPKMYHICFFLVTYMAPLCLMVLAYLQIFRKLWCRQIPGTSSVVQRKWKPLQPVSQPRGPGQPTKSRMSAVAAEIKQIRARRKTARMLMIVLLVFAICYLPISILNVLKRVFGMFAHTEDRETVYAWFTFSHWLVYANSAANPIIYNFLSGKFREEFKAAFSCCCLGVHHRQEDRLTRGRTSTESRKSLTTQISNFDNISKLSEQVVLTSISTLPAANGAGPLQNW
In short: as §1

Row | Compound | IC50 (human orexin-1 receptor) | IC50 (human orexin-2 receptor)
1 | Cc1nc(C(=O)N(CCc2c[nH]c3ccc(F)cc23)CC2CC2)c(-c2ccc(C#N)c(F)c2)s1 [Example 419, 5-(4-Cyano-3-fluoro-phenyl)-2-methyl-thiazole-4-carboxylic acid cyclopropylmethyl-[2-(5-fluoro-1H-indol-3-yl)-ethyl]-amide] | 2510 nM | 100 nM
2 | COc1nccc(-c2sc(C)nc2C(=O)N(CCc2c[nH]c3ccc(F)cc23)CC2CC2)c1Cl [Example 420, 5-(3-Chloro-2-methoxy-pyridin-4-yl)-2-methyl-thiazole-4-carboxylic acid cyclopropylmethyl-[2-(5-fluoro-1H-indol-3-yl)-ethyl]-amide] | 373 nM | 83 nM
3 | COc1ccc(-c2sc(C)nc2C(=O)N(CCc2c[nH]c3ccc(F)cc23)CC2CC2)cn1 [Example 421, 5-(6-Methoxy-pyridin-3-yl)-2-methyl-thiazole-4-carboxylic acid cyclopropylmethyl-[2-(5-fluoro-1H-indol-3-yl)-ethyl]-amide] | 34 nM | 4 nM
4 | CSc1cncc(-c2sc(C)nc2C(=O)N(CCc2c[nH]c3ccc(F)cc23)CC2CC2)c1 [Example 424, 2-Methyl-5-(5-methylsulfanyl-pyridin-3-yl)-thiazole-4-carboxylic acid cyclopropylmethyl-[2-(5-fluoro-1H-indol-3-yl)-ethyl]-amide] | 180 nM | 47 nM
5 | Cc1cncc(-c2sc(C)nc2C(=O)N(CCc2c[nH]c3ccc(F)cc23)CC2CC2)c1 [Example 426, 2-Methyl-5-(5-methyl-pyridin-3-yl)-thiazole-4-carboxylic acid cyclopropylmethyl-[2-(5-fluoro-1H-indol-3-yl)-ethyl]-amide] | 292 nM | 50 nM
6 | Cc1nc(C(=O)N(CCc2c[nH]c3ccc(F)cc23)CC2CC2)c(-c2cnc3ccccc3c2)s1 [Example 428, 2-Methyl-5-quinolin-3-yl-thiazole-4-carboxylic acid cyclopropylmethyl-[2-(5-fluoro-1H-indol-3-yl)-ethyl]-amide] | 83 nM | 18 nM
7 | Cc1cccc(-c2sc(CN)nc2C(=O)N(CCc2c[nH]c3ccc(F)cc23)CC2CC2)c1 [Example 433, 2-Aminomethyl-5-m-tolyl-thiazole-4-carboxylic acid cyclopropylmethyl-[2-(5-fluoro-1H-indol-3-yl)-ethyl]-amide] | 280 nM | 239 nM
8 | Cc1ccc(-c2nccnc2C(=O)N(CCN)CCc2c[nH]c3ccc(F)cc23)cc1C [Example 434, 3-(3,4-Dimethyl-phenyl)-pyrazine-2-carboxylic acid (2-amino-ethyl)-[2-(5-fluoro-1H-indol-3-yl)-ethyl]amide] | > 5420 nM | 816 nM
9 | COc1ccc(-c2nccnc2C(=O)N(CCc2c[nH]c3c(C)cccc23)CC2CC2)cc1 [Example 436, 3-(4-Methoxy-phenyl)-pyrazine-2-carboxylic acid cyclopropylmethyl-[2-(7-methyl-1H-indol-3-yl)-ethyl]-amide] | 24 nM | 2 nM
10 | O=C(c1cncnc1-c1ccccc1)N(CCc1c[nH]c2cc(F)c(Cl)cc12)CC1CC1 [Example 471, 4-Phenyl-pyrimidine-5-carboxylic acid [2-(5-chloro-6-fluoro-1H-indol-3-yl)-ethyl]-cyclopropylmethyl-amide] | 97 nM | 25 nM
11 | CN(C)c1nc(C(=O)N(CCc2c[nH]c3cc(F)c(Cl)cc23)CC2CC2)c(-c2ccccc2)s1 [Example 472, 2-Dimethylamino-5-phenyl-thiazole-4-carboxylic acid [2-(5-chloro-6-fluoro-1H-indol-3-yl)-ethyl]-cyclopropylmethyl-amide] | 28 nM | 211 nM
12 | COc1ccc2[nH]cc(CCN(CC3CC3)C(=O)c3cnc(C)nc3-c3ccccc3)c2c1C [Example 479, 2-Methyl-4-phenyl-pyrimidine-5-carboxylic acid cyclopropylmethyl-[2-(5-methoxy-4-methyl-1H-indol-3-yl)-ethyl]-amide] | 1380 nM | 48 nM
13 | CCC(=O)Nc1ccc(-c2sc(C)nc2C(=O)N(CCc2c[nH]c3ccccc23)CC2CC2)cc1 [Example 501, 2-Methyl-5-(4-propionylamino-phenyl)-thiazole-4-carboxylic acid cyclopropylmethyl-[2-(1H-indol-3-yl)-ethyl]-amide] | 246 nM | 330 nM

Further lines, results first:

Row | IC50 (human orexin-1 receptor) | IC50 (human orexin-2 receptor) | Compound
14 | 58 nM | 12 nM | O=C(c1ncccc1-c1cnc2ccccc2c1)N(CCc1c[nH]c2ccc(F)cc12)CC1CC1 [Example 404, 3-Quinolin-3-yl-pyridine-2-carboxylic acid cyclopropylmethyl-[2-(5-fluoro-1H-indol-3-yl)-ethyl]-amide]
15 | 3650 nM | 145 nM | COc1ccc(-c2sc(C)nc2C(=O)N(CCc2c[nH]c3ccc(F)cc23)CC2CC2)cc1C [Example 410, 5-(4-Methoxy-3-methyl-phenyl)-2-methyl-thiazole-4-carboxylic acid cyclopropylmethyl-[2-(5-fluoro-1H-indol-3-yl)-ethyl]-amide]
16 | 148 nM | 13 nM | Cc1nc(C(=O)N(CCc2c[nH]c3ccc(F)cc23)CC2CC2)c(-c2ccc(F)c(CO)c2)s1 [Example 418, 5-(4-Fluoro-3-hydroxymethyl-phenyl)-2-methyl-thiazole-4-carboxylic acid cyclopropylmethyl-[2-(5-fluoro-1H-indol-3-yl)-ethyl]-amide]
17 | 1610 nM | 53 nM | Cc1nc(C(=O)N(CCc2c[nH]c3ccc(F)cc23)CC2CC2)c(-c2ccc(CO)nc2)s1 [Example 423, 5-(6-Hydroxymethyl-pyridin-3-yl)-2-methyl-thiazole-4-carboxylic acid cyclopropylmethyl-[2-(5-fluoro-1H-indol-3-yl)-ethyl]-amide]
18 | 104 nM | 21 nM | Cc1nc(C(=O)N(CCc2c[nH]c3ccc(F)cc23)CC2CC2)c(-c2ccc3cc[nH]c3c2)s1 [Example 430, 5-(1H-Indol-6-yl)-2-methyl-thiazole-4-carboxylic acid cyclopropylmethyl-[2-(5-fluoro-1H-indol-3-yl)-ethyl]-amide]
19 | 54 nM | 32 nM | CNc1nc(C(=O)N(CCc2c[nH]c3ccc(F)cc23)CC2CC2)c(-c2cccc(C)c2)s1 [Example 435, 2-Methylamino-5-m-tolyl-thiazole-4-carboxylic acid cyclopropylmethyl-[2-(5-fluoro-1H-indol-3-yl)-ethyl]amide]
20 | 43 nM | 3 nM | COc1ccc(-c2nccnc2C(=O)N(CCc2c[nH]c3c(C)cccc23)CC2CC2)cn1 [Example 437, 3-(6-Methoxy-pyridin-3-yl)-pyrazine-2-carboxylic acid cyclopropylmethyl-[2-(7-methyl-1H-indol-3-yl)-ethyl]-amide]
21 | > 11100 nM | 50 nM | Cc1cccc2c(CCN(CC3CC3)C(=O)c3nccnc3-c3cncnc3)c[nH]c12 [Example 438, 3-Pyrimidin-5-yl-pyrazine-2-carboxylic acid cyclopropylmethyl-[2-(7-methyl-1H-indol-3-yl)-ethyl]-amide]
22 | 461 nM | 28 nM | COc1ncc(-c2nccnc2C(=O)N(CCc2c[nH]c3c(C)cccc23)CC2CC2)cn1 [Example 439, 3-(2-Methoxy-pyrimidin-5-yl)-pyrazine-2-carboxylic acid cyclopropylmethyl-[2-(7-methyl-1H-indol-3-yl)-ethyl]-amide]
23 | 6000 nM | 214 nM | COc1cccc2c(CCN(CC3CC3)C(=O)c3nccnc3-c3cccc(C(F)(F)F)c3)c[nH]c12 [Example 444, 3-(3-Trifluoromethyl-phenyl)-pyrazine-2-carboxylic acid cyclopropylmethyl-[2-(7-methoxy-1H-indol-3-yl)-ethyl]-amide]
24 | 227 nM | 10 nM | O=C(c1cncnc1-c1ccccc1)N(CCc1c[nH]c2ccccc12)CC1CC1 [Example 497, 4-Phenyl-pyrimidine-5-carboxylic acid cyclopropylmethyl-[2-(1H-indol-3-yl)-ethyl]-amide]
25 | 257 nM | 190 nM | CCN(C)c1nc(C(=O)N(CCc2c[nH]c3ccccc23)CC2CC2)c(-c2ccccc2F)s1 [Example 500, 2-(Ethyl-methyl-amino)-5-(2-fluoro-phenyl)-thiazole-4-carboxylic acid cyclopropylmethyl-[2-(1H-indol-3-yl)-ethyl]-amide]

Reference: patent US20110212968A1, “PHENETHYLAMIDE DERIVATIVES AND THEIR HETEROCYCLIC ANALOGUES” (priority 2008, published 2011)
